# From patent US20150057325A1, “COMPOUNDS CAPABLE OF MODULATING/PRESERVING ENDOTHELIAL INTEGRITY FOR USE IN PREVENTION OR TREATMENT OF ACUTE TRAUMATIC COAGULOPATHY AND RESUSCITATED CARDIAC ARREST” (priority 2012, published 2015)
# Tests used:
# [1] = human, in vivo
# Description: Ninety-four critically ill patients admitted to the intensive care unit (ICU) underwent haemofiltration with or without concomitant Flolan (prostacycline) treatment. None of the patients were suffering from Acute Traumatic Coagulopathy nor from sequelae to cardiac arrest. Flolan was administered in a low dose in the filters to prevent these from clotting and consequently there was only a minor spill over of Flolan to the systemic circulation. The patients were retrospectively reviewed.
# However, patients in the flolan group were more severely ill as evaluated by a lower platelet count at start of hemofiltration, a higher frequency of severe thrombocytopenia, a higher frequency of DIC diagnoses, a higher maximum SOFA score and a higher SOFA score at hemofiltration initiation as compared to the patients receiving non-flolan.
# [2] = Blood pressure and heart rate in healthy volunteers during intravenous flolan infusion; format: in vivo, human; conditions: 4 ng/kg/min i.v. for 2 h, any time point
# Description: (§1) Six healthy volunteers were administered flolan (Prostacycline) intravenously at a dose of 4 ng/kg/min for 2 h. Blood samples for whole blood viscoelastical assay (Thrombelastography [TEG]) and whole blood platelet aggregation (Multiplate) were obtained before infusion of Flolan, after 60 min infusion of Flolan and after 120 min infusion of Flolan.
# whole blood = assay: Whole blood viscoelastical assay (Thrombelastography, TEG) in healthy volunteers infused with flolan; format: in vivo, human; conditions: 6 healthy volunteers, 4 ng/kg/min i.v., after 60 and 120 min infusion; kaolin
# Description: Six healthy volunteers were administered flolan (Prostacycline) intravenously at a dose of 4 ng/kg/min for 2 h. Blood samples for whole blood viscoelastical assay (Thrombelastography [TEG]) and whole blood platelet aggregation (Multiplate) were obtained before infusion of Flolan, after 60 min infusion of Flolan and after 120 min infusion of Flolan. With regard to the TEG assay this was performed as recommended by the manufacturer and 340 μl are mixed with 20 μl CaCl 0.2 M (final concentration 11.1 mM in the cup) and kaolin at 37° C. after which the haemostatic activity is recorded as depicted in FIG. 1.
# [3] = test system: whole blood platelet aggregation; assay: Whole blood impedance aggregometry (Multiplate) in healthy volunteers infused with flolan; format: in vivo, human; conditions: 6 healthy volunteers, 4 ng/kg/min i.v., after 60 and 120 min infusion
# Description: as §1
# Whole blood impedance aggregometry was analyzed by the Multiple Platelet function Analyzer (MultiPlate® analyzer). Analysis employing various platelet agonists: ASPItest (activation by arachidonic acid), COLtest (activation by collagen through the collagen receptor), TRAPtest (activation by TRAP-6 stimulates the thrombin receptor on the platelet surface and ADPtest (activation by ADP stimulates platelet activation by the ADP receptors).
# MultiPlate continuously records platelet aggregation. The increase of impedance by the attachment of platelets onto the Multiplate sensors is transformed to arbitrary aggregation units (AU) and plotted against time as depicted in FIG. 2.
# endothelium = assay: Plasma biomarkers (ELISA) of endothelial, glycocalyx, necrosis and anticoagulation status in healthy volunteers after Flolan infusion; format: in vivo, human; conditions: 8 healthy volunteers, 4 ng/kg/min i.v. for 2 h
# Description: Eight healthy volunteers were administered Flolan® (Prostacyclin) intravenously at a dose of 4 ng/kg/min for 2 h. Blood samples were analyzed for plasma biomarkers indicative of endothelial cell (thrombomodulin, PAI-1) and glycocalyx (syndecan-1) activation and/or damage, cellular necrosis (histone-complexed DNA fragments, HMGB1) and anticoagulation (protein C, antithrombin, TFPI) at the following time points: Before the infusion (0 h), immediately after ceasing the infusion (2 h) and then 4 h, 5 h, 6 h, 8 h and 24 h after starting the infusion. The concentration of the individual biomarkers in plasma was analyzed by commercially available ELISA kits according to the manufactures recommendations. Paired t-tests with p-values <0.05 were considered significant.
# [4] = in vivo; cited from earlier work
compound,measurement,setting,value
"CCCCC[C@H](O)/C=C/[C@@H]1[C@H]2C/C(=C/CCCC(=O)O)O[C@H]2C[C@H]1O [Flolan, epoprostenol sodium]",Platelet count (difference before vs. after haemofiltration),[1],+14
same,haemostatic competence as evaluated by transfusion requirements,[1],does not negatively influence
same,total transfusion requirements and specifically of FFP during hemofiltration,[1],increased
same,"blood pressure, change from baseline",[2],did not change
same,"heart rate, change from baseline",[2],did not change
same,"TEG values (R, Angle, MA), baseline vs. samples during infusion",whole blood,No significant difference
same,"Multiplate values (ASPI, COL, ADP, TRAP), baseline vs. samples during infusion",[3],no significant difference
same,cell necrosis biomarker HMGB1,endothelium,did not influence
same,cell necrosis biomarker histone-complexed DNA fragments,endothelium,did not influence
same,circulating level of PAI-1,endothelium,declined
same,circulating level of TFPI (affected or not),endothelium,did not
same,circulating level of antithrombin,endothelium,decreased
same,glycocalyx shedding (syndecan-1),endothelium,did not induce or influence
same,HMGB1 at 5 h,"endothelium; 5 h after starting infusion, p=0.056",tendency towards a reduction
same,circulating level of thrombomodulin,endothelium; effect continuing for several hours after ceasing infusion,marked decrease
same,circulating level of Protein C,endothelium; in the hours after ceasing infusion,decreased
same,half time,[4],0.5 to 3 min
"CC#CCC(C)[C@H](O)/C=C/[C@@H]1[C@H]2c3cccc(CCCC(=O)O)c3O[C@H]2C[C@H]1O (mixture of isomers) [Beraprost, beraprost]",half time,[4],35 to 40 min
"CCCCC[C@H](O)CC[C@@H]1[C@H]2Cc3cccc(OCC(=O)O)c3C[C@H]2C[C@H]1O [Treprostinil, treprostinil]",half time,[4],less than 4 hours
"CC#CCC(C)[C@H](O)/C=C/[C@@H]1[C@H]2C/C(=C/CCCC(=O)O)C[C@H]2C[C@H]1O (some centres unmarked) [Iloprost, iloprost]",half time,[4],20 to 30 min
